Measurements published in ChEMBL document CHEMBL4308841, “Synthesis, in vitro antiproliferative activity, and kinase inhibitory effects of pyrazole-containing diarylureas and diarylamides” (Eur J Med Chem, 2018).

Tests used:
NCI-H522 [1] = assay: Growth inhibition of human NCI-H522 cells assessed as cell growth at 10 uM incubated for 48 hrs by sulforhodamine B assay relative to control; format: functional; settings: NCI-H522, 48 h, read-out: Activity
HT-29 [2] = assay: Growth inhibition of human HT-29 cells assessed as cell growth at 10 uM incubated for 48 hrs by sulforhodamine B assay relative to control; format: functional; settings: HT-29, 48 h, read-out: Activity
SK-MEL-2 = assay: Growth inhibition of human SK-MEL-2 cells assessed as cell growth at 10 uM incubated for 48 hrs by sulforhodamine B assay relative to control; format: functional; settings: SK-MEL-2, 48 h, read-out: Activity
NCI-H226 = assay: Growth inhibition of human NCI-H226 cells incubated for 48 hrs by sulforhodamine B assay; format: functional, cell-based; settings: NCI-H226, 48 h
SW-620 = assay: Growth inhibition of human SW620 cells incubated for 48 hrs by sulforhodamine B assay; format: functional, cell-based; settings: SW-620, 48 h
CCRF-CEM [3] = assay: Growth inhibition of human CCRF-CEM cells assessed as cell growth at 0.01 uM incubated for 48 hrs by sulforhodamine B assay relative to control; format: functional; settings: read-out: Activity
SF-268 = assay: Growth inhibition of human SF268 cells assessed as cell growth at 0.01 uM incubated for 48 hrs by sulforhodamine B assay relative to control; format: functional; settings: SF-268, 48 h, read-out: Activity
SF-539 = assay: Growth inhibition of human SF539 cells assessed as cell growth at 0.01 uM incubated for 48 hrs by sulforhodamine B assay relative to control; format: functional; settings: SF-539, 48 h, read-out: Activity
UACC-257 = assay: Growth inhibition of human UACC257 cells assessed as cell growth at 0.01 uM incubated for 48 hrs by sulforhodamine B assay relative to control; format: functional; settings: UACC-257, 48 h, read-out: Activity
RXF 393 = assay: Growth inhibition of human RXF393 cells assessed as cell growth at 0.01 uM incubated for 48 hrs by sulforhodamine B assay relative to control; format: functional; settings: RXF 393, 48 h, read-out: Activity
PC-3 = assay: Growth inhibition of human PC3 cells assessed as cell growth at 0.01 uM incubated for 48 hrs by sulforhodamine B assay relative to control; format: functional; settings: PC-3, 48 h, read-out: Activity
MDA-MB-468 = assay: Growth inhibition of human MDA-MB-468 cells assessed as cell growth at 0.01 uM incubated for 48 hrs by sulforhodamine B assay relative to control; format: functional; settings: MDA-MB-468, 48 h, read-out: Activity
CCRF-CEM [4] = assay: Growth inhibition of human CCRF-CEM cells assessed as cell growth at 0.1 uM incubated for 48 hrs by sulforhodamine B assay relative to control; format: functional; settings: read-out: Activity
NCI-H460 = assay: Growth inhibition of human NCI-H460 cells assessed as cell growth at 0.1 uM incubated for 48 hrs by sulforhodamine B assay relative to control; format: functional; settings: NCI-H460, 48 h, read-out: Activity
NCI-H522 [5] = assay: Growth inhibition of human NCI-H522 cells assessed as cell growth at 0.1 uM incubated for 48 hrs by sulforhodamine B assay relative to control; format: functional; settings: NCI-H522, 48 h, read-out: Activity
HCT-15 = assay: Growth inhibition of human HCT15 cells assessed as cell growth at 0.1 uM incubated for 48 hrs by sulforhodamine B assay relative to control; format: functional; settings: HCT-15, 48 h, read-out: Activity
HT-29 [6] = assay: Growth inhibition of human HT-29 cells assessed as cell growth at 0.1 uM incubated for 48 hrs by sulforhodamine B assay relative to control; format: functional; settings: HT-29, 48 h, read-out: Activity
KM12 = assay: Growth inhibition of human KM12 cells assessed as cell growth at 0.1 uM incubated for 48 hrs by sulforhodamine B assay relative to control; format: functional; settings: KM12, 48 h, read-out: Activity
SK-MEL-5 = assay: Growth inhibition of human SK-MEL-5 cells assessed as cell growth at 0.1 uM incubated for 48 hrs by sulforhodamine B assay relative to control; format: functional; settings: SK-MEL-5, 48 h, read-out: Activity
CCRF-CEM [7] = assay: Growth inhibition of human CCRF-CEM cells assessed as cell growth at 1 uM incubated for 48 hrs by sulforhodamine B assay relative to control; format: functional; settings: read-out: Activity
HL-60(TB) = assay: Growth inhibition of human HL-60(TB) cells assessed as cell growth at 1 uM incubated for 48 hrs by sulforhodamine B assay relative to control; format: functional; settings: HL-60, 48 h, read-out: Activity
MOLT-4 = assay: Growth inhibition of human MOLT4 cells assessed as cell growth at 1 uM incubated for 48 hrs by sulforhodamine B assay relative to control; format: functional; settings: MOLT-4, 48 h, read-out: Activity
HCC 2998 = assay: Growth inhibition of human HCC2998 cells assessed as cell growth at 1 uM incubated for 48 hrs by sulforhodamine B assay relative to control; format: functional; settings: HCC 2998, 48 h, read-out: Activity
A498 [8] = assay: Growth inhibition of human A498 cells assessed as cell growth at 1 uM incubated for 48 hrs by sulforhodamine B assay relative to control; format: functional; settings: A498, 48 h, read-out: Activity
SR = assay: Growth inhibition of human SR cells assessed as cell growth at 100 uM incubated for 48 hrs by sulforhodamine B assay relative to control; format: functional; settings: read-out: Activity
SNB-75 = assay: Growth inhibition of human SNB75 cells assessed as cell growth at 100 uM incubated for 48 hrs by sulforhodamine B assay relative to control; format: functional; settings: SNB-75, 48 h, read-out: Activity
UACC-62 = assay: Growth inhibition of human UACC62 cells assessed as cell growth at 100 uM incubated for 48 hrs by sulforhodamine B assay relative to control; format: functional; settings: UACC-62, 48 h, read-out: Activity
OVCAR-4 = assay: Growth inhibition of human OVCAR4 cells assessed as cell growth at 100 uM incubated for 48 hrs by sulforhodamine B assay relative to control; format: functional; settings: OVCAR-4, 48 h, read-out: Activity
OVCAR-8 = assay: Growth inhibition of human OVCAR8 cells assessed as cell growth at 100 uM incubated for 48 hrs by sulforhodamine B assay relative to control; format: functional; settings: OVCAR-8, 48 h, read-out: Activity
SK-OV-3 = assay: Growth inhibition of human SKOV3 cells assessed as cell growth at 100 uM incubated for 48 hrs by sulforhodamine B assay relative to control; format: functional; settings: SK-OV-3, 48 h, read-out: Activity
A498 [9] = assay: Growth inhibition of human A498 cells assessed as cell growth at 100 uM incubated for 48 hrs by sulforhodamine B assay relative to control; format: functional; settings: A498, 48 h, read-out: Activity
SN12C = assay: Growth inhibition of human SN12C cells assessed as cell growth at 100 uM incubated for 48 hrs by sulforhodamine B assay relative to control; format: functional; settings: read-out: Activity

## COc1cc(Cl)cc(-c2nn(-c3cccc(NC(=O)c4cccc(C(F)(F)F)c4)c3)cc2-c2ccncc2)c1
NCI-H522 [1]
  growth at 10 µM: 32.2%
HT-29 [2]
  growth at 10 µM: 42.5%
SK-MEL-2
  growth at 10 µM: 56.4%
NCI-H226; read-out: GI50
  GI50: > 100 µM
NCI-H226; read-out: LC50
  LC50: > 100 µM
NCI-H226; read-out: TGI
  TGI: > 100 µM
NCI-H226; read-out: pGI50 (converted)
  GI50: > 100 µM
NCI-H226; read-out: pLC50 (converted)
  LC50: > 100 µM
NCI-H226; read-out: pTGI (converted)
  TGI: > 100 µM
SW-620; read-out: GI50
  GI50: > 100 µM
SW-620; read-out: LC50
  LC50: > 100 µM
SW-620; read-out: TGI
  TGI: > 100 µM
SW-620; read-out: pGI50 (converted)
  GI50: > 100 µM
SW-620; read-out: pLC50 (converted)
  LC50: > 100 µM
SW-620; read-out: pTGI (converted)
  TGI: > 100 µM
CCRF-CEM [3]
  growth at 0.01 µM: 96%
SF-268
  growth at 0.01 µM: 101%
SF-539
  growth at 0.01 µM: 93%
UACC-257
  growth at 0.01 µM: 91%
RXF 393
  growth at 0.01 µM: 58%
PC-3
  growth at 0.01 µM: 94%
MDA-MB-468
  growth at 0.01 µM: 91%
CCRF-CEM [4]
  growth at 0.1 µM: 92%
NCI-H460
  growth at 0.1 µM: 99%
NCI-H522 [5]
  growth at 0.1 µM: 83%
HCT-15
  growth at 0.1 µM: 91%
HT-29 [6]
  growth at 0.1 µM: 93%
KM12
  growth at 0.1 µM: 111%
SK-MEL-5
  growth at 0.1 µM: 95%
CCRF-CEM [7]
  growth at 1 µM: 53%
HL-60(TB)
  growth at 1 µM: 105%
MOLT-4
  growth at 1 µM: 72%
HCC 2998
  growth at 1 µM: 103%
A498 [8]
  growth at 1 µM: 51%
SR
  growth at 100 µM: 15%
SNB-75
  growth at 100 µM: 49%
UACC-62
  growth at 100 µM: 40%
OVCAR-4
  growth at 100 µM: 74%
OVCAR-8
  growth at 100 µM: 41%
SK-OV-3
  growth at 100 µM: 78%
A498 [9]
  growth at 100 µM: 59%
SN12C
  growth at 100 µM: 52%
